From publication PMC8398451, “Molecular Engineering of Curcumin, an Active Constituent of Curcuma longa L. (Turmeric) of the Family Zingiberaceae with Improved Antiproliferative Activity” (Plants, 2021)

Key:
Assay type in all cases: cell-based, Human
CAKI-1 = test: NCI antiproliferative SRB assay, Renal Cancer panel; conditions: for %GI / GP (growth percent): one dose 10 µM
MCF7 = test: NCI antiproliferative SRB assay, Breast Cancer panel; conditions: for %GI / GP (growth percent): one dose 10 µM
MDA-MB-468 = test: as above; conditions: for %GI / GP (growth percent): one dose 10 µM
Protocol: The antiproliferative activity of tested compounds was done against five dozen (60) cancer cell lines derived from nine different panels. All of the compounds were evaluated for antiproliferative activity in a single dose at 10 µM. Growth percent (GP) and percent growth inhibition (% GI) were used to calculate antiproliferative activity. […] The antiproliferative results of five-dose assay were calculated as three dose related parameters like, 50% growth inhibition (GI50), 50% lethal concentration (LC50), and total growth inhibition TGI [43, 44, 45, 46, 47].
Human tumor cell lines were grown in RPMI 1640 medium containing 5% fetal bovine serum and 2 mM L-glutamine. For a typical screening experiment, cells were inoculated into 96-well microtiter plates in 100 µL at plating densities ranging from 5000 to 40,000 cells/well, depending on the doubling time of individual cell lines. Two plates of each cell line were fixed in situ with trichloroacetic acid (TCA) after 24 h to represent a cell population measurement for each cell line at the time of drug addition (Ti). The experimental drugs were frozen after being solubilized in dimethyl sulfoxide at 400-fold the desired final maximum test concentration. An aliquot of frozen concentrate was thawed and diluted to twice the desired final maximum test concentration with medium containing 50 µg/mL gentamicin at the time of drug addition. Additional four, 10-fold, or ½ log serial dilutions serial dilutions were performed to provide a total of five drug concentrations plus the control. Aliquots of 100 µL of these different drug dilutions were added to the appropriate microtiter wells already containing 100 µL of medium, resulting in the required final drug concentrations. Following drug addition, the plates are incubated for an additional 48 h at 37 °C, 5% CO2, 95% air, and 100% relative humidity. For adherent cells, the assay is terminated by the addition of cold TCA. Cells are fixed in situ by the gentle addition of 50 µL of cold 50% (w/v) TCA (final concentration, 10% TCA) and incubated for 60 min at 4 °C. The supernatant is discarded, and the plates are washed five times with tap water and air dried. Sulforhodamine B (SRB) solution (100 µL) at 0.4% (w/v) in 1% acetic acid was added to each well, and plates were incubated for 10 min at room temperature. After staining, unbound dye was removed by washing five times with 1% acetic acid and the plates were air dried. Bound stain was subsequently solubilized with 10 mM trizma base, and the absorbance was read on an automated plate reader at a wavelength of 515 nm. For suspension cells, the methodology was the same except that the assay was terminated by fixing settled cells at the bottom of the wells by gently adding 50 µL of 80% TCA (final concentration, 16% TCA). […]
Antiproliferative activity
The anticancer screening was carried ou t as per the NCI US protocol. Using the seven absorbance measurements (time zero, (Ti), control growth, (C), and test growth in the presence of drug at the five concentration levels (Tf)), the percentage growth was calculated at each of the drug concentrations level as [( Tf−Ti × 100 for concentrations for which Tf ≥ Ti, and Tf−Ti × 100 for […]
concentrations for which Tf < Ti.
Three-dose response parameters (GI50, TGI, and LC50) were calculated for each of the experimental agents. Growth inhibition of 50% (GI50) was calculated from 100 × Tf−Ti = 50, , which was […]
the drug concentration resulting in a 50% reduction in the net protein increase (as measured by sulforhodamine B, SRB staining) in control cells during the drug incubation. The total growth inhibition (TGI) was calculated from Tf = Ti, which was the drug concentration resulting in total growth inhibition and signified the cytostatic effect. The LC50 was calculated from 100 × Tf−Ti = −50, , indicating a net loss […]
of cells following treatment which indicated the concentration of drug resulting in a 50% reduction in the […]

BT-549 = test: as above; conditions: for %GI / GP (growth percent): one dose 10 µM
UACC-62 = test: NCI antiproliferative SRB assay, Melanoma panel; conditions: for %GI / GP (growth percent): one dose 10 µM
SR = test: NCI antiproliferative SRB assay, Leukemia panel
SF-268 = test: NCI antiproliferative SRB assay, CNS Cancer panel; conditions: for %GI / GP (growth percent): one dose 10 µM
SK-MEL-5 = test: NCI antiproliferative SRB assay, Melanoma panel; conditions: for %GI / GP (growth percent): one dose 10 µM
T-47D = test: NCI antiproliferative SRB assay, Breast Cancer panel; conditions: for %GI / GP (growth percent): one dose 10 µM
SK-MEL-2 = test: NCI antiproliferative SRB assay, Melanoma panel; conditions: for %GI / GP (growth percent): one dose 10 µM
HS 578T = test: NCI antiproliferative SRB assay, Breast Cancer panel; conditions: for %GI / GP (growth percent): one dose 10 µM
[1] = test system: Renal Cancer cell line panel; test: NCI antiproliferative assay, panel summary; conditions: Renal Cancer panel; for Mean % GI: 10 µM
NCI-H322M = test: NCI antiproliferative SRB assay, Non-Small Cell Lung Cancer panel; conditions: for %GI / GP (growth percent): one dose 10 µM
MOLT-4 = test: NCI antiproliferative SRB assay, Leukemia panel; conditions: for %GI / GP (growth percent): one dose 10 µM
HT29 = test: NCI antiproliferative SRB assay, Colon Cancer panel; conditions: for %GI / GP (growth percent): one dose 10 µM
[2] = Homo sapiens, 5-dose 0.01-100 µM
[3] = Homo sapiens, 5-dose 0.01-100 µM, read-out: LC50 (the source's name)
[4] = Homo sapiens, T47D, 5-dose 0.01-100 µM

## COc1ccc(/C=C/c2cc(/C=C/c3ccc(OC)c(O)c3)n(-c3cccc(Cl)c3)c(=S)n2)cc1O [3a]
CAKI-1
  %GI: 20.96%
  GP (growth percent): 79.04
MCF7
  %GI: 32.09%
  GP (growth percent): 67.91
MDA-MB-468; MDA-MB-468
  %GI: 16.19%
  GP (growth percent): 83.81
BT-549
  %GI: 27.48%
  GP (growth percent): 72.52
UACC-62
  %GI: 17.81%
  GP (growth percent): 82.19
SR; one dose 10 µM
  %GI: 51.28%
  GP (growth percent): 48.72
SF-268
  %GI: 16.24%
  GP (growth percent): 83.76
SK-MEL-5
  %GI: 21.01%
  GP (growth percent): 78.99
T-47D
  %GI: 36.18%
  GP (growth percent): 63.82
SK-MEL-2
  %GI: 4.85%
  GP (growth percent): 95.15
HS 578T
  %GI: 15.67%
  GP (growth percent): 84.33
[1]
  Mean % GI: 7.23%
NCI-H322M
  %GI: 8.07%
  GP (growth percent): 91.93
MOLT-4
  %GI: 53.78%
  GP (growth percent): 46.22
HT29
  %GI: 53.43%
  GP (growth percent): 46.57

## COc1ccc(NC(=O)n2nc(/C=C/c3ccc(O)c(OC)c3)cc2/C=C/c2ccc(O)c(OC)c2)cc1 [3b]
CAKI-1; 5-dose 0.01-100 µM
  TGI: >100 µM
CAKI-1; [2]
  GI50: 3.6 µM
CAKI-1; [3]
  CC50: > 100 µM
CAKI-1
  %GI: 61.94%
  GP (growth percent): 38.06
MCF7; 5-dose 0.01-100 µM
  TGI: 17.0 µM
MCF7; [2]
  GI50: 3.3 µM
MCF7; [3]
  CC50: > 100 µM
MCF7
  %GI: 84.37%
  GP (growth percent): 15.63
MDA-MB-468; Homo sapiens, MDA-MB-468, read-out: LC50
  LC50 (50% lethal concentration): > 100 µM
MDA-MB-468; Homo sapiens, MDA-MB-468, 5-dose 0.01-100 µM
  GI50: 3.55 µM
MDA-MB-468; MDA-MB-468, 5-dose 0.01-100 µM
  TGI: 21.6 µM
MDA-MB-468; MDA-MB-468
  %GI: 65.32%
  GP (growth percent): 34.68
BT-549; 5-dose 0.01-100 µM
  TGI: 29.5 µM
BT-549; [2]
  GI50: 2.49 µM
BT-549; [3]
  CC50: > 100 µM
BT-549
  %GI: 68.63%
  GP (growth percent): 31.37
UACC-62; 5-dose 0.01-100 µM
  TGI: 6.91 µM
UACC-62; [2]
  GI50: 2.14 µM
UACC-62; [3]
  CC50: > 100 µM
UACC-62
  %GI: 74.53%
  GP (growth percent): 25.47
SR; 5-dose 0.01-100 µM
  TGI: 12.8 µM
SR; [2]
  GI50: 1.52 µM
SR; [3]
  CC50: > 100 µM
SF-268; 5-dose 0.01-100 µM
  TGI: 36.4 µM
SF-268; [2]
  GI50: 3.21 µM
SF-268; [3]
  CC50: > 100 µM
SF-268
  %GI: 58.19%
  GP (growth percent): 41.81
SK-MEL-5; 5-dose 0.01-100 µM
  TGI: 16.1 µM
SK-MEL-5; [2]
  GI50: 3.67 µM
SK-MEL-5; [3]
  CC50: > 100 µM
SK-MEL-5
  %GI: 90.96%
  GP (growth percent): 9.04
T-47D; 5-dose 0.01-100 µM
  TGI: 25.8 µM
T-47D; [4]
  GI50: 3.68 µM
  LC50 (lethal concentration, 50% cell kill): > 100 µM
T-47D
  %GI: 65.17%
  GP (growth percent): 34.83
SK-MEL-2; 5-dose 0.01-100 µM
  TGI: 18.1 µM
SK-MEL-2; [2]
  GI50: 3.23 µM
SK-MEL-2; [3]
  CC50: > 100 µM
SK-MEL-2
  %GI: 78.62%
  GP (growth percent): 21.38
HS 578T; 5-dose 0.01-100 µM
  TGI: 61.9 µM
HS 578T; [2]
  GI50: 6.77 µM
HS 578T; [3]
  CC50: > 100 µM
HS 578T
  %GI: 71.29%
  GP (growth percent): 28.71
[1]; Homo sapiens, 5-dose assay, read-out: Sub Panel MID b (mean GI50 of panel)
  GI50: 5.84 µM
[1]
  Mean % GI: 60.54%
[1]; 5-dose assay
  Selectivity Ratio (MID a:MID b): 0.84
NCI-H322M; 5-dose 0.01-100 µM
  TGI: 72.5 µM
NCI-H322M; [2]
  GI50: 3.87 µM
NCI-H322M; [3]
  CC50: > 100 µM
NCI-H322M
  %GI: 41.86%
  GP (growth percent): 58.14
MOLT-4; 5-dose 0.01-100 µM
  TGI: 13.3 µM
MOLT-4; [2]
  GI50: 2.87 µM
MOLT-4; [3]
  CC50: > 100 µM
MOLT-4
  %GI: 87.76%
  GP (growth percent): 12.24
HT29; 5-dose 0.01-100 µM
  TGI: 11.0 µM
HT29; Homo sapiens, HT-29, 5-dose 0.01-100 µM
  GI50: 3.52 µM
HT29; Homo sapiens, HT-29, 5-dose 0.01-100 µM, read-out: LC50 (the source's name)
  CC50: > 100 µM
HT29
  %GI: 68.74%
  GP (growth percent): 31.26
